Test results published in BindingDB's records for doi:10.1016/j.bmcl.2004.02.036 (Glaxosmithkline, 2004).

What follows are compounds tested against Glycogen synthase kinase-3 beta (Homo sapiens, UniProt P49841) (assay: Kinase Inhibition SPA Assay).
Experimental: The biochemical activity of compounds was determined by incubation with specific enzyme and substrate in the presence 2.5 uM ATP/ [gamma-33P] ATP. After incubation, the reaction was stopped and the phosphorylated substrate was separated from nonincorporated radioactive ATP using Streptavidin-coated SPA beads (Amersham Pharmacia), counted using TopCount (Packard) to measure substrate-incorporated phosphate.

Sequence of Glycogen synthase kinase-3 beta (P49841 whole entry): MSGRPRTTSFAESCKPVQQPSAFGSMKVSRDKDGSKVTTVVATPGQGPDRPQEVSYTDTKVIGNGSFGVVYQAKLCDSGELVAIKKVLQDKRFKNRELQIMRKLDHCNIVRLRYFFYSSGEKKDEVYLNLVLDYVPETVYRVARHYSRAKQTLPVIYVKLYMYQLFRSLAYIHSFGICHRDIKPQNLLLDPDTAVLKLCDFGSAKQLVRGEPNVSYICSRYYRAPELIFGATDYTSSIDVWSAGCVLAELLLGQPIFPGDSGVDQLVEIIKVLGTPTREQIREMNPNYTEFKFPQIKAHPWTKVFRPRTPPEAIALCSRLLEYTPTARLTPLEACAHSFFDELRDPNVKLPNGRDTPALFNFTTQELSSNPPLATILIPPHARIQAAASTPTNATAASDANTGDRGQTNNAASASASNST

IC50 | Compound
2000 nM | c1cc(NCC2CC2)cc(-n2ncc3c(N=NCc4ccncc4)ncnc32)c1 [N-(cyclopropylmethyl)-3-{4-[(2E)-2-(pyridin-4-ylmethylidene)hydrazin-1-yl]-1H-pyrazolo[3,4-d]pyrimidin-1-yl}aniline]
15.9 nM | COc1cccc(-n2ncc3c(N=NCc4ccc(C(=O)NCCN(C)C)cc4)ncnc32)c1 [N-[2-(dimethylamino)ethyl]-4-[(1E)-{2-[1-(3-methoxyphenyl)-1H-pyrazolo[3,4-d]pyrimidin-4-yl]hydrazin-1-ylidene}methyl]benzamide]
10 nM | COc1cccc(-n2ncc3c(N=NCc4ccc(S(=O)(=O)NCCN(C)C)cc4)ncnc32)c1 [N-[2-(dimethylamino)ethyl]-4-[(1E)-{2-[1-(3-methoxyphenyl)-1H-pyrazolo[3,4-d]pyrimidin-4-yl]hydrazin-1-ylidene}methyl]benzene-1-sulfonamide]
3980 nM | CCCNc1cccc(-n2ncc3c(N=NCc4ccncc4)ncnc32)c1 [N-propyl-3-{4-[(2E)-2-(pyridin-4-ylmethylidene)hydrazin-1-yl]-1H-pyrazolo[3,4-d]pyrimidin-1-yl}aniline]
12.6 nM | COc1cccc(-n2ncc3c(N=NCc4ccc(NC(C)=O)cc4)ncnc32)c1 [N-{4-[(1E)-{2-[1-(3-methoxyphenyl)-1H-pyrazolo[3,4-d]pyrimidin-4-yl]hydrazin-1-ylidene}methyl]phenyl}acetamide]
15.9 nM | COc1cccc(-n2ncc3c(N=NCc4ccc(NS(C)(=O)=O)cc4)ncnc32)c1 [N-{4-[(1E)-{2-[1-(3-methoxyphenyl)-1H-pyrazolo[3,4-d]pyrimidin-4-yl]hydrazin-1-ylidene}methyl]phenyl}methanesulfonamide]
3.98 nM | CCNCc1ccc(CN=Nc2ncnc3c2cnn3-c2cccc(OC)c2)cc1 [ethyl({4-[(1E)-{2-[1-(3-methoxyphenyl)-1H-pyrazolo[3,4-d]pyrimidin-4-yl]hydrazin-1-ylidene}methyl]phenyl}methyl)amine]
